By IC50 is commonly meant the midpoint of a concentration-inhibition curve.

The source of these data is patent publication US11976061B2, “Preparation of benzimidazolone derivatives as novel diacylglyceride O-acyltransferase 2 inhibitors” (Merck Sharp & Dohme LLC, priority 2020, dated 2024).

A value given as a limit tells only on which side of the number the result lay.

For one test, the target named is T1, human DGAT2 (hDGAT2) (Homo sapiens, UniProt Q96PD7).
T1 construct: made in house; host or cells: Sf-9 insect cells (baculovirus), membrane fraction
T1 sequence (Q96PD7 1-388): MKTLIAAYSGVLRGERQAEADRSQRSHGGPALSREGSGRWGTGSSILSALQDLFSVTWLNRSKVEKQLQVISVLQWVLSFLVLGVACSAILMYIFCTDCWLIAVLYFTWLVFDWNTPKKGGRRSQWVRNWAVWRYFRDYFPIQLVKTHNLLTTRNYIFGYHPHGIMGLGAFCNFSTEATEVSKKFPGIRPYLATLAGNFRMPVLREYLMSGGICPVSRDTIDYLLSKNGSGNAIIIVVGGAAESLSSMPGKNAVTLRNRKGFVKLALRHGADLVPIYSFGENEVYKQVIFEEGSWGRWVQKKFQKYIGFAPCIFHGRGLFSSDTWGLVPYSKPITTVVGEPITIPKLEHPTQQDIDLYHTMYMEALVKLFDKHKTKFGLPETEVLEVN
As to the kind of experiment: DGAT2 Enzymatic Activity Assay. It counts as biochemical. The note with it: membrane prep of Sf-9 cells expressing hDGAT2; 25 μM diolein, 5 μM 13C oleoyl-CoA; 13C18-triolein by LC/MS/MS; read-out: DGAT2 IC50. The procedure, abridged:
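Membranes from Sf-9 cells expressing untagged human DGAT2 (8 ng/μL) incubated at rt in 100 mM Tris·Cl pH 7.0, 20 mM MgCl2, 5% ethanol with 25 μM diolein and 5 μM 13C oleoyl-CoA. 13C18-triolein product quantified by LC/MS/MS against 13C21-triolein internal standard; IC50 by 4-parameter fit.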
`CC(n1c(=O)n(-c2cccc(OC(F)(F)C(F)F)c2)c2ccc(C(=O)NC3(C)CS(=O)(=O)C3)cc21)C(C)(C)O` (single isomer, unassigned) [Example 76b, 3-(3-hydroxy-3-methylbutan-2-yl)-N-(3-methyl-1,1-dioxidothietan-3-yl)-2-oxo-1-(3-(1,1,2,2-tetrafluoroethoxy)phenyl)-2,3-dihydro-1H-benzo[d]imidazole-5-carboxamide]: the 50% inhibitory concentration (IC50) turned out to be 7.9 nM.

Take `CCn1cc(CNC(=O)c2ccc3c(c2)n(C(C)C)c(=O)n3-c2cccc(OC(F)F)c2)cn1` [Example 63, 1-(3-(difluoromethoxy)phenyl)-N-((1-ethyl-1H-pyrazol-4-yl)methyl)-3-isopropyl-2-oxo-2,3-dihydro-1H-benzo[d]imidazole-5-carboxamide]: the IC50 was over 9990 nM. On the same count and under the same terms, with `CC(C)n1c(=O)n(-c2cccc(OC(F)F)c2)c2ccc(C(=O)N[C@H]3CCCC[C@@H]3O)cc21` [Example 35, 1-[3-(difluoromethoxy)phenyl]-N-[(1S,2S)-2-hydroxycyclohexyl]-3-isopropyl-2-oxo-benzimidazole-5-carboxamide] the figure was 71 nM; with `CC(n1c(=O)n(-c2cc(OC(F)F)ccc2F)c2ccc(C(=O)NC3(C)CCS(=O)(=O)CC3)cc21)C(C)(C)O` (single isomer, unassigned) [Example 66b, 1-(5-(difluoromethoxy)-2-fluorophenyl)-3-(3-hydroxy-3-methylbutan-2-yl)-N-(4-methyl-1,1-dioxidotetrahydro-2H-thiopyran-4-yl)-2-oxo-2,3-dihydro-1H-benzo[d]imidazole-5-carboxamide], 16.9 nM; with `CC(C)n1c(=O)n(-c2cccc(OC(F)F)c2)c2ccc(C(=O)NC3(C)CS(=O)(=O)C3)cc21` [Example 26, 1-[3-(difluoromethoxy)phenyl]-3-isopropyl-N-(3-methyl-1,1-dioxo-thietan-3-yl)-2-oxo-benzimidazole-5-carboxamide], 54 nM. Still for that read-out and setting: as for `CC(C)n1c(=O)n(-c2cccc(OC(F)F)c2)c2c(F)cc(C(=O)N[C@]3(C)CCS(=O)(=O)C3)cc21` [Example 110, 1-[3-(difluoromethoxy)phenyl]-7-fluoro-3-isopropyl-N-[(3R)-3-methyl-1,1-dioxo-thiolan-3-yl]-2-oxo-benzimidazole-5-carboxamide], the figure is 7 nM; as for `CC(n1c(=O)n(-c2cccc(OC(F)(F)C(F)F)c2)c2ccc(C(=O)NC3(C)CCS(=O)(=O)CC3)cc21)C(C)(C)O` (single isomer, unassigned) [Example 77a, 3-(3-hydroxy-3-methylbutan-2-yl)-N-(4-methyl-1,1-dioxidotetrahydro-2H-thiopyran-4-yl)-2-oxo-1-(3-(1,1,2,2-tetrafluoroethoxy)phenyl)-2,3-dihydro-1H-benzo[d]imidazole-5-carboxamide], 5.6 nM. As for `CC(n1c(=O)n(-c2cc(OCC(F)F)ccc2F)c2cc(F)c(C(=O)NC3(C)CCS(=O)(=O)CC3)cc21)C(C)(C)O` (single isomer, unassigned) [Example 75b, 1-(5-(2,2-difluoroethoxy)-2-fluorophenyl)-6-fluoro-3-(3-hydroxy-3-methylbutan-2-yl)-N-(4-methyl-1,1-dioxidotetrahydro-2H-thiopyran-4-yl)-2-oxo-2,3-dihydro-1H-benzo[d]imidazole-5-carboxamide], the IC50 came to 2.4 nM. For `CC(C)n1c(=O)n(-c2cccc(OC(F)(F)C(F)F)c2)c2ncc(C(=O)N[C@]3(C)CCS(=O)(=O)C3)cc21` [Example 95, 1-isopropyl-N-[(3R)-3-methyl-1,1-dioxo-thiolan-3-yl]-2-oxo-3-[3-(1,1,2,2-tetrafluoroethoxy)phenyl]imidazo[4,5-b]pyridine-6-carboxamide], the IC50 was found to be 23 nM. Same read-out and setting: as for `CC1(NC(=O)c2ccc3c(c2)n(CCC(F)(F)F)c(=O)n3-c2cccc(OC(F)F)c2)CCS(=O)(=O)CC1` [Example 42, 1-(3-(Difluoromethoxy)phenyl)-N-(4-methyl-1,1-dioxidotetrahydro-2H-thiopyran-4-yl)-2-oxo-3-(3,3,3-trifluoropropyl)-2,3-dihydro-1H-benzo[d]imidazole-5-carboxamide], the figure is 405 nM.

As for `CC(C)n1c(=O)n(-c2cccc(OC(F)F)c2)c2ccc(C(=O)NC3(C)CC(F)(F)C3)cc21` [Example 33, 1-[3-(difluoromethoxy)phenyl]-N-(3,3-difluoro-1-methyl-cyclobutyl)-3-isopropyl-2-oxo-benzimidazole-5-carboxamide], the IC50 worked out at 182 nM. The same measure, in the same setting: with `CC(C)n1c(=O)n(-c2cc(OC(F)F)ccc2F)c2ncc(C(=O)NC3(C)CS(=O)(=O)C3)cc21` [Example 102, 3-[5-(difluoromethoxy)-2-fluoro-phenyl]-1-isopropyl-N-(3-methyl-1,1-dioxo-thietan-3-yl)-2-oxo-imidazo[4,5-b]pyridine-6-carboxamide] the figure was 148 nM.

Staying with this test, now noted: membrane prep of Sf-9 cells expressing hDGAT2; 25 μM diolein, 5 μM 13C oleoyl-CoA; 13C18-triolein by LC/MS/MS; read-out: Human DGAT2 IC50.
`CC(C)n1c(=O)n(-c2cccc(OCC(F)F)c2)c2ccc(C(=O)NC3(C)CS(=O)(=O)C3)cc21` [Example 8, 1-[3-(2,2-difluoroethoxy)phenyl]-3-isopropyl-N-(3-methyl-1,1-dioxo-thietan-3-yl)-2-oxo-benzimidazole-5-carboxamide]: the IC50 stood at 43 nM. Same read-out and setting: with `CC(C)n1c(=O)n(-c2cccc(OC(F)F)c2)c2ccc(C(=O)N[C@@]3(C)CCS(=O)(=O)C3)c(F)c21` [Example 124, (S)-1-(3-(Difluoromethoxy)phenyl)-4-fluoro-3-isopropyl-N-(3-methyl-1,1-dioxidotetrahydrothiophen-3-yl)-2-oxo-2,3-dihydro-1H-benzo[d]imidazole-5-carboxamide] the figure was 191 nM; with `CC(C)n1c(=O)n(-c2cccc(OC(F)F)c2)c2ccc(C(=O)N[C@]3(C)CCS(=O)(=O)C3)cc21` [Example 23, (R)-1-(3-(Difluoromethoxy)phenyl)-3-isopropyl-N-(3-methyl-1,1-dioxidotetrahydrothiophen-3-yl)-2-oxo-2,3-dihydro-1H-benzo[d]imidazole-5-carboxamide], 63 nM; with `CCOc1cc(-n2c(=O)n(C(C)C)c3cc(C(=O)N[C@]4(C)CCS(=O)(=O)C4)ccc32)c(F)cn1` [Example 18, (R)-1-(2-Ethoxy-5-fluoropyridin-4-yl)-3-isopropyl-N-(3-methyl-1,1-dioxidotetrahydrothiophen-3-yl)-2-oxo-2,3-dihydro-1H-benzo[d]imidazole-5-carboxamide], 28 nM. The same measure, in the same setting: as for `CC(C)n1c(=O)n(-c2cccc(OC(F)(F)F)c2)c2ccc(C(=O)NC3(C)CS(=O)(=O)C3)cc21` [Example 19, 3-isopropyl-N-(3-methyl-1,1-dioxo-thietan-3-yl)-2-oxo-1-[3-(trifluoromethoxy)phenyl]benz-imidazole-5-carboxamide], the figure is 100 nM; as for `CC(C)n1c(=O)n(-c2cc(OC(F)F)ncc2F)c2ccc(C(=O)NC3(C)CS(=O)(=O)C3)cc21` [Example 20, 1-(2-(difluoromethoxy)-5-fluoropyridin-4-yl)-3-isopropyl-N-(3-methyl-1,1-dioxidothietan-3-yl)-2-oxo-2,3-dihydro-1H-benzo[d]imidazole-5-carboxamide], 76 nM.
